Values of other authors, collected in patent US20060188492A1, “Topical management of ocular and periocular conditions” (ChronoRX LLC, an Alaska Limited Liability Company, priority 2005, published 2006).

Experiments:
lens = conditions: experimental evidence; compared with the R isomer
[1] = test system: bovine aortic endothelial cells; conditions: LA added before endothelial exposure to AGE albumin
[2] = in the presence of glutathione (GSH)

Q: Which “prevention of cataract development” value (lens) does the source give for `O=C(O)CCCCC1CCSS1` (stereo not drawn) [R stereoisomer of LA, 1,2-dithiolane-3-pentanoic acid] here?
A: Its value is “can prevent cataract development”.

Q: With `O=C(O)CCCCC1CCSS1` (racemic) [racemic mixture, 1,2-dithiolane-3-pentanoic acid] as the molecule, how does the “prevention of cataract development” value (lens) read?
A: The value was “less than one-half as effective as the R isomer”.

Q: For `O=C(O)CCCCC1CCSS1` (single isomer, unassigned) [S isomer, 1,2-dithiolane-3-pentanoic acid], which “prevention of cataract development” value (lens) is on record?
A: The value was “not effective”.

Q: Which “depletion of GSH and ascorbic acid” value [1] does the source give for `O=C(O)CCCCC1CCSS1` (centres unmarked) [LA, 1,2-dithiolane-3-pentanoic acid] here?
A: The value was “completely prevents depletion of GSH and ascorbic acid”.

Q: Which “increase of neuroprotective potency” value [2] does the source give for `C[C@]12CC[C@@H]3c4ccc(O)cc4CC[C@H]3[C@@H]1CC[C@H]2O` [estradiol, 17 α-estradiol] here?
A: The value was 400 fold.
